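How tested: cells in 96-well plates exposed to compound for 48 hours at five concentrations. Here, GI50 denotes the concentration required for 50% inhibition of growth. The concentration for full growth arrest is given as TGI.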
Key:
Test in all cases: inhibition of tumour cell growth, NCI panel, 48 h
SF-268 CNS = tested on: SF-268 CNS
OVCAR-5 ovarian = tested on: OVCAR-5 ovarian
SN12C renal = tested on: SN12C renal
MDA-MB-435 = tested on: MDA-MB-435
K-562 leukemia = tested on: K-562 leukemia
EKVX NSCLC = tested on: EKVX NSCLC
SK-MEL-2 melanoma = tested on: SK-MEL-2 melanoma
UACC-62 melanoma = tested on: UACC-62 melanoma
SW-620 colon = tested on: SW-620 colon
HCT-116 colon = tested on: HCT-116 colon
U251 CNS = tested on: U251 CNS
786-0 renal = tested on: 786-0 renal
MCF7 breast = tested on: MCF7 breast
LOX IMVI melanoma = tested on: LOX IMVI melanoma
NCI-H522 lung = tested on: NCI-H522 lung
OVCAR-3 ovarian = tested on: OVCAR-3 ovarian
OVCAR-4 ovarian = tested on: OVCAR-4 ovarian
HOP-92 NSCLC = tested on: HOP-92 NSCLC
SNB-75 CNS = tested on: SNB-75 CNS
A498 renal = tested on: A498 renal
CAKI-1 renal = tested on: CAKI-1 renal
OVCAR-8 ovarian = tested on: OVCAR-8 ovarian
SF-295 CNS = tested on: SF-295 CNS
MALME-3M melanoma = tested on: MALME-3M melanoma
UO-31 renal = tested on: UO-31 renal
NCI/ADR-RES ovarian = tested on: NCI/ADR-RES ovarian
NCI-H23 lung = tested on: NCI-H23 lung
SK-MEL-5 melanoma = tested on: SK-MEL-5 melanoma
SNB-19 CNS = tested on: SNB-19 CNS
COLO 205 colon = tested on: COLO 205 colon
HCC-2998 colon = tested on: HCC-2998 colon
KM12 colon = tested on: KM12 colon
NCI-H460 lung = tested on: NCI-H460 lung
SF-539 CNS = tested on: SF-539 CNS
CCRF-CEM leukemia = tested on: CCRF-CEM leukemia
BT-549 breast = tested on: BT-549 breast
TK-10 renal = tested on: TK-10 renal
HT29 colon = tested on: HT29 colon
HL-60(TB) leukemia = tested on: HL-60(TB) leukemia
IGROV1 ovarian = tested on: IGROV1 ovarian
SR leukemia = tested on: SR leukemia
RPMI-8226 leukemia = tested on: RPMI-8226 leukemia
MOLT-4 leukemia = tested on: MOLT-4 leukemia
NCI-H226 lung = tested on: NCI-H226 lung
M14 melanoma = tested on: M14 melanoma
MDA-MB-231 breast = tested on: MDA-MB-231 breast
SK-MEL-28 melanoma = tested on: SK-MEL-28 melanoma
HOP-62 NSCLC = tested on: HOP-62 NSCLC
RXF 393 renal = tested on: RXF 393 renal
PC-3 prostate = tested on: PC-3 prostate
HCT-15 colon = tested on: HCT-15 colon
HS 578T breast = tested on: HS 578T breast
SK-OV-3 ovarian = tested on: SK-OV-3 ovarian
ACHN renal = tested on: ACHN renal
UACC-257 melanoma = tested on: UACC-257 melanoma
T-47D breast = tested on: T-47D breast
DU-145 prostate = tested on: DU-145 prostate
A549 NSCLC = tested on: A549 NSCLC

Work on COc1ccc(C(=O)c2cc(OC)c3c(c2)OCO3)cc1O yielded a GI50 (SF-268 CNS) of 287 nM, a TGI (SF-268 CNS) of 16100 nM and a GI50 (OVCAR-5 ovarian) of 4490 nM. For the same compound, the TGI (OVCAR-5 ovarian) was greater than 100000 nM, the GI50 (SN12C renal) was 1090 nM and the TGI (SN12C renal) was greater than 100000 nM. It also gave a GI50 (MDA-MB-435) of 22.1 nM, a TGI (MDA-MB-435) of 60.3 nM and a GI50 (K-562 leukemia) of 45.9 nM. It also gave a TGI (K-562 leukemia) greater than 100000 nM, a GI50 (EKVX NSCLC) of 19800 nM and a TGI (EKVX NSCLC) greater than 100000 nM. The GI50 (SK-MEL-2 melanoma) was 346 nM, the TGI (SK-MEL-2 melanoma) was 34400 nM and the GI50 (UACC-62 melanoma) was 946 nM. The TGI (UACC-62 melanoma) was greater than 100000 nM, the GI50 (SW-620 colon) was 57.7 nM and the TGI (SW-620 colon) was greater than 100000 nM. For the same compound, the GI50 (HCT-116 colon) was 345 nM, the TGI (HCT-116 colon) was 9190 nM and the GI50 (U251 CNS) was 315 nM. The TGI (U251 CNS) was greater than 100000 nM, the GI50 (786-0 renal) was 933 nM and the TGI (786-0 renal) was greater than 100000 nM. The GI50 (MCF7 breast) was 332 nM, the TGI (MCF7 breast) was 64000 nM and the GI50 (LOX IMVI melanoma) was 180 nM. The TGI (LOX IMVI melanoma) was greater than 100000 nM, the GI50 (NCI-H522 lung) was 25.9 nM and the TGI (NCI-H522 lung) was 105 nM. The GI50 (OVCAR-3 ovarian) was 213 nM, the TGI (OVCAR-3 ovarian) was 481 nM and the GI50 (OVCAR-4 ovarian) was 1720 nM. The TGI (OVCAR-4 ovarian) was greater than 100000 nM, the GI50 (HOP-92 NSCLC) was 824 nM and the TGI (HOP-92 NSCLC) was 52700 nM. It also gave a GI50 (SNB-75 CNS) of 166 nM, a TGI (SNB-75 CNS) of 34600 nM and a GI50 (A498 renal) of 2340 nM. The TGI (A498 renal) was 7500 nM, the GI50 (CAKI-1 renal) was 1410 nM and the TGI (CAKI-1 renal) was greater than 100000 nM. The GI50 (OVCAR-8 ovarian) was 387 nM, the TGI (OVCAR-8 ovarian) was greater than 100000 nM and the GI50 (SF-295 CNS) was 832 nM. The TGI (SF-295 CNS) was greater than 100000 nM, the GI50 (MALME-3M melanoma) was 6720 nM and the TGI (MALME-3M melanoma) was greater than 100000 nM. It also gave a GI50 (UO-31 renal) of 3640 nM, a TGI (UO-31 renal) greater than 100000 nM and a GI50 (NCI/ADR-RES ovarian) of 43.6 nM. It also gave a GI50 (NCI-H23 lung) of 248 nM, a TGI (NCI-H23 lung) greater than 24800 nM and a GI50 (SK-MEL-5 melanoma) of 261 nM. It also gave a TGI (SK-MEL-5 melanoma) of 1710 nM, a GI50 (SNB-19 CNS) of 377 nM and a TGI (SNB-19 CNS) greater than 100000 nM. It also gave a GI50 (COLO 205 colon) of 7510 nM, a TGI (COLO 205 colon) of 21000 nM and a GI50 (HCC-2998 colon) of 1720 nM. For the same compound, the TGI (HCC-2998 colon) was greater than 31500 nM, the GI50 (KM12 colon) was 50.5 nM and the TGI (KM12 colon) was 2640 nM. For the same compound, the GI50 (NCI-H460 lung) was 299 nM, the TGI (NCI-H460 lung) was 9450 nM and the GI50 (SF-539 CNS) was 199 nM. For the same compound, the TGI (SF-539 CNS) was 3070 nM, the GI50 (CCRF-CEM leukemia) was 298 nM and the TGI (CCRF-CEM leukemia) was greater than 100000 nM. It also gave a GI50 (BT-549 breast) of 3060 nM, a TGI (BT-549 breast) greater than 100000 nM and a GI50 (TK-10 renal) of 5700 nM. The TGI (TK-10 renal) was 99400 nM, the GI50 (HT29 colon) was 3180 nM and the TGI (HT29 colon) was greater than 57200 nM. The GI50 (HL-60(TB) leukemia) was 119 nM, the TGI (HL-60(TB) leukemia) was 2240 nM and the GI50 (IGROV1 ovarian) was 1180 nM. The TGI (IGROV1 ovarian) was greater than 100000 nM, the GI50 (SR leukemia) was 42.3 nM and the TGI (SR leukemia) was greater than 100000 nM. For the same compound, the GI50 (RPMI-8226 leukemia) was 309 nM, the TGI (RPMI-8226 leukemia) was greater than 44000 nM and the GI50 (MOLT-4 leukemia) was 617 nM. For the same compound, the TGI (MOLT-4 leukemia) was greater than 100000 nM, the GI50 (NCI-H226 lung) was 2490 nM and the TGI (NCI-H226 lung) was 8810 nM. It also gave a GI50 (M14 melanoma) of 47.3 nM, a TGI (M14 melanoma) of 5220 nM and a GI50 (MDA-MB-231 breast) of 572 nM. For the same compound, the TGI (MDA-MB-231 breast) was greater than 100000 nM, the GI50 (SK-MEL-28 melanoma) was 457 nM and the TGI (SK-MEL-28 melanoma) was greater than 100000 nM. For the same compound, the GI50 (HOP-62 NSCLC) was 383 nM, the TGI (HOP-62 NSCLC) was greater than 54200 nM and the GI50 (RXF 393 renal) was 215 nM. For the same compound, the TGI (RXF 393 renal) was 674 nM, the GI50 (PC-3 prostate) was 908 nM and the TGI (PC-3 prostate) was greater than 100000 nM. For the same compound, the GI50 (HCT-15 colon) was 112 nM, the TGI (HCT-15 colon) was greater than 100000 nM and the GI50 (HS 578T breast) was 190 nM. It also gave a TGI (HS 578T breast) greater than 32100 nM, a GI50 (SK-OV-3 ovarian) of 200 nM and a TGI (SK-OV-3 ovarian) of 1580 nM. For the same compound, the GI50 (ACHN renal) was 1570 nM, the TGI (ACHN renal) was greater than 100000 nM and the GI50 (UACC-257 melanoma) was 1130 nM. It also gave a TGI (UACC-257 melanoma) greater than 79500 nM, a GI50 (T-47D breast) of 883 nM and a TGI (T-47D breast) greater than 100000 nM. The GI50 (DU-145 prostate) was 340 nM, the TGI (DU-145 prostate) was 3520 nM and the GI50 (A549 NSCLC) was 614 nM. The TGI (A549 NSCLC) was greater than 100000 nM.
